Data on 2 compounds can be found in US20120225862A1, “HETEROARYL BENZAMIDES, COMPOSITIONS AND METHODS OF USE” (AUCKLAND UNIVSERVICES LIMITED, priority 2009, published 2012).

Molecules are shown by their SMILES. pIC50: −log10 of the molar value.

Data set [1] relates to RCC4/VHL. The experiment in a line: Clonogenic survival, RCC4/VHL. Format: cell-based, human. To be noted: RCC4/VHL (wild-type VHL), 5 μM, 10 days. As for the experimental part: Three hundred cells were plated into 60-mm tissue culture dishes in DMEM. The next day, cells were treated with vehicle or drug and were further incubated for an additional 10 days. After 10 days, the media was removed and colonies were fixed and stained in 95% ethanol and 0.1% crystal violet for 15 minutes. The stain was removed and plates were washed in deionized water. Colonies were quantified. All conditions were measured in triplicate and all experiments were performed in triplicate.
For 2,3-bis[2-methoxy-4-nitro-5-sulfophenyl]-2H-tetrazolium-5-carboxanilide (XTT) assays, five thousand cells were plated in 96-well plates. The next day, vehicle (DMSO) or drug was added by serial dilution. Four days later, media were aspirated, XTT solution (0.3 mg/ml of XTT (Sigma), 2.65 mg/ml N-methyl dibenxopyrazine methyl sulfate (Simga) in phenol red-free media) was added, and the plates were incubated at 37° C. for 1-2 hours. Metabolism of XTT was quantified by measuring the absorbance at 450 nm. IC50s were calculated using linear interpolation. For clonogenic survival assays, three hundred cells were plated per 60 mm tissue culture dish. The cells were allowed to attach overnight and then treated with vehicle or drug for 14 days. […] All conditions were measured in triplicate and each experiment was done in duplicate or triplicate. […] Live and dead cells were counted on a hematocytometer.

The subject of data set [2] is RCC4/VHL. The experiment in a line: XTT IC50 assay, selectivity RCC4 versus RCC4 with VHL-reintroduced. To be noted: selectivity ratio of XTT IC50 values, RCC4 vs RCC4/VHL. It is filed as cell-based, human. The procedure, abridged: (§1)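 RCC4 parental and VHL-reintroduced RCC4/VHL cells (DMEM, 10% FCS) treated with serially diluted drug for four days. Viability by XTT (0.3 mg/mL) with N-methyl dibenzopyrazine methyl sulfate, 1–2 h at 37 °C, absorbance 450 nm; IC50 by linear interpolation.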
A general note: Tetrazolium dyes change colour on reduction, which living cells bring about.

Data set [3] deals with RCC4. The data set is described as follows: XTT IC50 / viability assay, RCC4 cells. It is filed as cell-based, human. The note with it: for pIC50: Homo sapiens, RCC4, 96 h, XTT assay, four days. An outline of the steps: as §1
The subject of data set [4] is RCC4. The experiment in a line: Clonogenic survival, RCC4. To be noted: RCC4 (VHL-deficient), 5 μM, 10 days. It is filed as cell-based, human. The protocol: Three hundred cells were plated into 60-mm tissue culture dishes in DMEM. The next day, cells were treated with vehicle or drug and were further incubated for an additional 10 days. […] The stain was removed and plates were washed in deionized water. Colonies were quantified. All conditions were measured in triplicate and all experiments were performed in triplicate.
For 2,3-bis[2-methoxy-4-nitro-5-sulfophenyl]-2H-tetrazolium-5-carboxanilide (XTT) assays, five thousand cells were plated in 96-well plates. The next day, vehicle (DMSO) or drug was added by serial dilution. […] Metabolism of XTT was quantified by measuring the absorbance at 450 nm. IC50s were calculated using linear interpolation. For clonogenic survival assays, three hundred cells were plated per 60 mm tissue culture dish. The cells were allowed to attach overnight and then treated with vehicle or drug for […]. […] All conditions were measured in triplicate and each experiment was done in duplicate or triplicate. To determine necrosis, cells were treated with drug for a given time point. Media and cells were collected, centrifugated, and resuspended in 0.4% trypan blue (Invitrogen). Live and dead cells were counted on a hematocytometer.

The test system of data set [5] is 786-O. The experiment in a line: FDG-PET imaging of 786-O xenografts. It is filed as in vivo, mice. As for the experimental part: (§2) FIG. 5A-E In vivo monitoring and efficacy of compound 47. […] 786-O, a renal clear cell carcinoma with a naturally occurring VHL mutation, were implanted subcutaneously into the flanks of CD-1 nude mice. Representative axial cross section of a mouse prior to treatment (left) and following three daily i.p. injections with compound 85 (11.6 mg/kg)(right), overlaid over CT scan. (B) Quantitatively, compound 85 inhibits FDG-PET in mouse xenografts. Quantification of FDG-PET inhibition by compound 85 as determined by the 90th percentile ROI for percent injected dose per gram (% ID/g) (*p<0.01). (C) Compound 85 is not toxic to normal tissues. (a, b) Kidney of vehicle- and compound 85-treated animals. (c, d) Spleen of vehicle- and compound 85-treated animals. (e, f) Liver of vehicle- and compound 85-treated animals. (g, h) Heart of vehicle- and compound 85-treated animals. (i, j) Salivary gland of vehicle- and compound 85-treated animals. (k, l) Brain of vehicle- and compound 85-treated animals. Scale bar represents 100 microns. (D) Compound 85 delays tumor growth. 786-O tumor-bearing mice were treated daily with vehicle or compound 85 (11.6 mg/kg for the first 3 days, followed by 7.8 mg/kg for the next week)(*p<0.005). (E) Compound 85 delays tumor growth in cells that have lost VHL. ACHN cells expressing a short hairpin RNA to VHL were implanted subcutaneously into the flanks of immunocompromised mice. Once tumors reached an average of >20 mm^3, mice were treated daily with compound 85 or vehicle (*p<0.05). All error bars represent the standard error of the mean.
In Vivo Studies and Immunohistochemistry. All experiments were approved by Stanford's Administrative Panel on Laboratory Animal Care (APLAC) and in accordance with both institutional and national guidelines. Five million cells were implanted subcutaneously into the flanks of nude mice (4-6 weeks old)(Charles River Laboratories). Tumors were measured with calipers. Volume was calculated by the following formula: width^2×0.5 length. […]

Data set [6] in a line: Normal tissue toxicity (histology). It is filed as in vivo. The note with it: treated mice; kidney, spleen, liver, heart, salivary gland, brain. As for the experimental part:
as §2, with “(E) Compound 85 delays tumor growth in cells that have lost VHL. ACHN cells expressing a short hairpin RNA to VHL were implanted subcutaneously into the flanks of immunocompromised mice. Once tumors reached an average of >20 mm^3, mice were treated daily with compound 85 or vehicle (*p<0.05). All error bars represent the standard error of the mean.” left out
In Vivo Studies and Immunohistochemistry. […] Tumors were measured with calipers. Volume was calculated by the following formula: width^2×0.5 length. […]

Data set [7] is described as follows: Solubility (comparison in words). It is filed as physicochemical.
Data set [8] relates to 786-O. The data set is described as follows: Xenograft tumor growth, 786-O. Format: in vivo, mice. The note with it: daily, 11.6 mg/kg for 3 days then 7.8 mg/kg, ten to fourteen days, vs vehicle. As for the experimental part:
(§3) Five million cells were injected into the flanks of nu/nu mice (4-6 weeks old males) and allowed to grow to approximately 50 mm^3. The mice were injected daily by intra-peritoneal to deliver either vehicle or drug. Tumors were measured every other day and tumor volume was calculated as 0.5 length by width squared.
(§4) In Vivo Studies and Immunohistochemistry. All experiments were approved by Stanford's Administrative Panel on Laboratory Animal Care (APLAC) and in accordance with both institutional and national guidelines. Five million cells were implanted subcutaneously into the flanks of nude mice (4-6 weeks old)(Charles River Laboratories). Tumors were measured with calipers. Volume was calculated by the following formula: width^2×0.5 length. Once tumors reached an average size of >20 mm^3, mice were randomized into vehicle (DMSO diluted in 16% cremaphor EL/PBS) or treated groups. Mice were treated with compound 85 (11.6 mg/kg for the first 3 days, followed by 7.8 mg/kg for the 7-9 days). Five-micron sections were cut for immunohistochemistry. Sections were counterstained with hematoxylin and eosin. For 2-[^18F]-fluoro-2-deoxy-glucose-positron emission tomography imaging, mice bearing tumors were fasted overnight. The next day, the mice were anesthetized with 2% isoflurane and injected intraperitoneally with 250 μCi of FDG. […]

The subject of a further data set is ACHN shVHL. The data set is described as follows: Xenograft tumor growth, ACHN expressing shRNA to VHL. Format: in vivo, mice. To be noted: daily systemic treatment ten to fourteen days, vs vehicle. The protocol:
as §3, §4

Another data set relates to ACHN. The data set is described as follows: Xenograft tumor growth, ACHN with wild-type VHL. Format: in vivo, mice. To be noted: daily treatment vs vehicle control. As for the experimental part: as §3, §4

By pIC50 is commonly meant the negative decadic logarithm of the IC50, by convention in mol/L.

In the case of `COc1cccc(S(=O)(=O)NCc2ccc(C(=O)Nc3cccnc3)cc2)c1` [Example 18, 4-((3-Methoxyphenylsulfonamido)methyl)-N-(pyridin-3-yl)benzamide], the “clonogenic survival of RCC4/VHL” value in the data set with RCC4/VHL [1] was “relatively unaffected”. The “Ratio (RCC4:RCC/VHL)” value with RCC4/VHL [2] is listed as “b (“b” reflects from 10 to 100)”. Besides, in the data set with RCC4 [3], the pIC50 is 4.70 to 6.00. In addition, in the data set on RCC4 [3] (four days of treatment, concentration-dependent, FIG. 2A), the “number of RCC4 cells compared to RCC4/VHL (XTT metabolic activity)” value is recorded as “significant decrease in the number of RCC4 cells”. Besides, the “clonogenic survival of RCC4” value in the data set on RCC4 [4] is recorded as “specifically toxic to RCC4 cells”.

With `CN1CCN(c2ccc(S(=O)(=O)NCc3ccc(C(=O)Nc4cccnc4)cc3)cc2)CC1` [Example 76, 4-((4-(4-Methylpiperazin-1-yl)phenylsulfonamido)methyl)-N-(pyridin-3-yl)benzamide], the “glucose uptake within tumors by FDG-PET” value in the data set on 786-O [5] (786-O xenografts in CD-1 nude mice, three daily i.p. doses (11.6 mg/kg)) was “striking decrease in glucose uptake within the tumors”. The “tumor FDG uptake, quantified (% ID/g)” value in the data set on 786-O [5] (786-O xenografts, FIG. 5B) is listed as “consistently decreased FDG uptake”. Also, in data set [6], the normal tissue toxicity result is “no normal tissue toxicity”. Further, the “Ratio (RCC4:RCC/VHL)” value in the data set on RCC4/VHL [2] is recorded as “c (“c” reflects a ratio of >100)”. In addition, the “solubility relative to compound 47” value in [7] was “more soluble”. Further, the pIC50 with RCC4 [3] was greater than 6.00. The “tumor growth, 786-O xenografts” value with 786-O [8] is listed as “markedly delayed tumor growth”. In addition, in the data set on ACHN shVHL, the “tumor growth, ACHN shVHL xenografts” value is listed as “markedly delayed tumor growth”. In the data set on ACHN, the “tumor growth, ACHN wild-type VHL xenografts” value is listed as “grew at similar rates”.
